Data from US20120014926A1, “Activation of Precursor Cells for Cell Therapy” (priority 2009, published 2012).

Assays:
BMC = BMC migration towards SDF-1, modified Boyden chamber assay; format: cell-based, mouse; conditions: inhibitor added to upper chamber along with treated BMC; p<0.05
Experimental: BMC migration towards SDF-1 was determined using a modified Boyden chamber assay. BMC were pre-incubated with either PBS or the invented solution for 4 hours at 37 deg.C. and transferred to the upper chamber of inserts in a 24-well plate containing DMEM and 100 ng/ml SDF-1. Migrated cells were counted after 6 hrs incubation at 37° C. Inhibitors AMD3100, LY294002, L-NMMA, and anti-CXCR4 antibody were added to the upper chamber along with BMC.

[1] = system: mice after surgical implementation of hindlimb ischemia; experiment: Homing of injected GFP BMC to ischemic hindlimb muscle; format: in vivo, mouse; conditions: SDF-1 protein 100 ng injected into ischemic hindlimb muscle; treated and untreated cells
Experimental: SDF1 protein was also injected into the ischemic hindlimb muscle to enhance BMC homing. SDF-1 protein (100 ng) was injected into the ischemic hindlimb muscle of WT BL6 mice twice at consecutive days after the surgery. The hindlimb muscles were recovered 7 days after the cell injection, stained with DAPI for nucleus (light white), and examined for GFP cells (bright white, arrow pointed) incorporation under fluorescent microscopy. (A) untreated BMC, B) Treated BMC, C) Untreated BMC+SDF-1, D) Treated BMC+SDF-1. E) The incorporated GFP cells were quantified as cells per high power field (HPF). *P<0.05, and **P<0.01 versus all other groups (n=6).

Compound | mobility of the treated BMC on addition of inhibitor (BMC) | effect of exogenous SDF-1 on homing of injected BMC [1]
c1cc(CN2CCCNCCNCCCNCC2)ccc1CN1CCCNCCNCCCNCC1 [AMD3100] | significantly reduced | 
CNC(=N)NCCC[C@H](N)C(=O)O [L-NNMA] | significantly reduced | 
SDF-1: stromal cell derived factor-1, chemotactic cytokine, protein injected into ischemic hindlimb muscle |  | homed more efficiently
